Laboratory results from PMC9118553, “In Vivo Bioconcentration of 10 Anionic Surfactants in Rainbow Trout Explained by In Vitro Data on Partitioning and S9 Clearance” (Environmental Science & Technology, 2022).
Where two headings read alike, the source gives them in different places.

Experiments:
[1] = RT-S9 substrate depletion assay, individual compounds, with IVIVE; settings: for CLint,S9 / CLint,in vivo set to LOD/3 for extrapolation: s9
Description: The in vitro intrinsic clearance by the S9 fraction of rainbow trout liver was measured for the same 11 anionic surfactants used in the BCF experiment as separate compounds. […] An established RT-S9 substrate depletion assay was employed,[25]−[27] predating the currently available OECD guideline 319B.[28] A single batch of the characterized liver homogenate material was prepared at the US EPA lab in Duluth and shipped on dry ice to the testing facilities at the University of Amsterdam. The test was conducted using the same method applied for a series of cationic surfactants in Droge et al.[29] and is summarized together with the in vitro–in vivo extrapolation in Text S4.
(§1) Text S4: Trout liver S9 parent depletion assay details and IVIVE
(§2) Liver tissue was separately pooled from the same five rainbow trout (three males/two females, ~300 g, liver weight ~3 g) used also for the RT-S9 study on a series of cationic surfactants (Droge et al., 2021b). The liver sample was homogenized in an appropriate buffer and then centrifuged to yield a 13,000 x g supernatant (the ‘S9 fraction’, lacking only mitochondrial fractions). No further refinement towards microsomal fractions was made to remove cytosolic and lysosomal components.
(§3) Upon arrival at the University of Amsterdam the liver
(§4) S9 material was stored in a -80 °C freezer until use.
(§5) Individual chemicals were first dissolved in methanol and then further diluted to 20% methanol in 100 mM phosphate buffer to make a ~20 µM stock solution, which was then spiked as 10 µL in 190 µL of active S9 mixture. The active S9 mixture consisted of 100 mM potassium phosphate-buffered saline (PPBS) adjusted to pH 7.8, 2 mM β-NADPH, 2 mM UDPGA, 0.1 mM PAPS, 5 mM GSH, 10 μg/mL alamethicin (in methanol carrier; 0.1% v/v final concentration), and 2 mg/mL S9 protein. The substrate depletion assays were performed using the multiple vial method described in OECD TG 319B, employing two or three separately spiked series.
(§6) Reactions were performed at 11 °C in a temperature-controlled water bath (B. Braun Frigomix-R) that was placed on a 2 cm travel path shaker (Gerhardt LS 10) set at 45 rpm. As a positive […]
(§7) alkylsulfonates, no additional assays with inactivated RT-S9 were performed.
(§8) Reactions were quenched with 600 µL ice-cold acetonitrile. After 10 s vortexing and 5 min centrifugation (Hermle Z300, 2500 rpm), 100 µL clear supernatant was transferred into 300 µL glass inserts placed in new autosampler vials, and mixed with 100 µL pure water. Concentrations were measured using a Prominence UFLC-XR system (Shimadzu) coupled to a tandem mass spectrometer (QTRAP 4000, Applied Biosystems) with a Turbo Ion spray source operated at 400 ◦C. For chromatographic separations, a 100 x 2.1mm x 2.7 µm Supelco Ascentis Express column was used (40 °C), with eluent A: pure water with 2 mM ammonium acetate, and eluent […]
(§9) prepared in 50% acetonitrile/water, calibration curves used covered at least four points in a log-linear range. The lowest external standard to fit the log-linear calibration curve served as limit of quantification, requiring a peak of at least 10x the average noise.
(§10) Each vial was treated as an independent vial with recorded exposure time. Log-transformed concentration data of the parent compound were plotted against exposure time (min) and analysed using Graphpad PRISM 8. […]
(§11) the slope (min-1) was multiplied by -2.3 and by 60 (min h-1) to obtain a first order depletion rate […]
(§12) Extrapolation of kdep to whole body rate biotransformation rate constant (kB-S9) The basic approach to extrapolate first order depletion rate constants (k dep) to whole body

[2] = RT-S9 substrate depletion assay, mixture of 9 anionic surfactants (AnionMixture); settings: for Slope of depletion curve (log concentration vs time): tested in a mixture
Description: An established RT-S9 substrate depletion assay was employed,[25]−[27] predating the currently available OECD guideline 319B.[28] A single batch of the characterized liver homogenate material was prepared at the US EPA lab in Duluth and shipped on dry ice to the testing facilities at the University of Amsterdam. The test was conducted using the same method applied for a series of cationic surfactants in Droge et al.[29] and is summarized together with the in vitro–in vivo extrapolation in Text S4.
as §1, §2, §3, §4, §5, §6, §7, §8, §9, §10, §11, §12

[3] = Baseline screening BCF (0.0125 DMLW, equilibrium partitioning, no biotransformation); settings: for Log baseline BCF: determined as 0.0125 DMLW
Text: Recently, the concept of a baseline screening BCF was introduced for surfactants, based on equilibrium partitioning assuming no biotransformation.[19] The baseline screening BCF for the study chemicals exceeded the measured BCF by 1–2.5 orders of magnitude (Table S16), providing further evidence that biotransformation is an important factor influencing the elimination—and thereby the BCF—of the anionic surfactants studied here in rainbow trout. The deviation of PFOA and PFOS from the regression between BCF and DMLW (Figure 1, upper panel) is attributable to them not being biotransformed.
Table S16: Comparison of the BCF (determined with the measured concentrations in water) and the baseline screening BCF (determined as 0.0125 DMLWa)
CHEMICAL Log BCF Log baseline BCF Log difference […]
a Droge, S. T. J.; Scherpenisse, P.; Arnot, J. A.; Armitage, J. M.; McLachlan, M. S.; Nichols, J.; von der Ohe, P.; Bonnell, M.; Hodges, G. Screening the baseline fish bioconcentration potential of various types of surfactants using phospholipid binding data. Environ. Sci.: Processes Impacts

[4] = both, rainbow trout, 1 µM, pH 7.8

kB-S9, biotransformation rate constant from in vitro RT-S9 assay [1]	CLint,S9 [1]	clearance rate lower in AnionMixture compared to single compound assay (factor) [2]	Slope of depletion curve (log concentration vs time) [2]	Log difference (baseline BCF vs BCF) [3]	Log baseline BCF [3]	factor by which kB-S9 was less than kB-BCF [1]	reaction rate set to LOD/3 for extrapolation [1]	CLint,in vivo set to LOD/3 for extrapolation [1]	SMILES	factor by which kB-S9 was less than kB-BCF [1, 4]	kB-S9, biotransformation rate constant from in vitro RT-S9 assay [1, 4]	Slope of depletion curve (log concentration vs time) ([1]; tested individually, 2 mg/mL S9 protein, 11 °C)
0.041 (0.037–0.045) h^–1	0.61 mL h-1 mg protein-1	twofold	-0.0050 min-1	1.99 L kg-1 ww	3.20 L kg-1 ww				CCCCCCCCCCc1ccc(S(=O)(=O)O)cc1 [C10-1-LAS, 1-n-(p-sulfophenyl)decane]			
0.366 (0.33–0.40) h^–1	4.54 mL h-1 mg protein-1	6	-0.0111 min-1	2.48 L kg-1 ww	1.11 L kg-1 ww				CCCCCCCCCCS(=O)(=O)O [C10SO3, decylsulfonate]			
0.225 (0.21–0.24) h^–1	3.05 mL h-1 mg protein-1			2.35 L kg-1 ww	1.49 L kg-1 ww				CCCCCCCCCCCS(=O)(=O)O [C11SO3, undecylsulfonate]			
0.151 (0.136–0.166) h^–1	2.81 mL h-1 mg protein-1	twofold	-0.0202 min-1	2.37 L kg-1 ww	2.26 L kg-1 ww				CCCCCCCCCCCOS(=O)(=O)O [C11SO4, undecylsulfate]			
0.084 (0.059–0.109) h^–1	1.30 mL h-1 mg protein-1		-0.0216 min-1	2.38 L kg-1 ww	2.34 L kg-1 ww				CCCCCCCCCCCCOCCOCCOCCOCCOS(=O)(=O)O [C12-EO4-SO4, dodecyltetraethoxysulfate]			
0.032 (0.028–0.036) h^–1	0.45 mL h-1 mg protein-1			1.90 L kg-1 ww	2.56 L kg-1 ww				CCCCCCCCCCCCCS(=O)(=O)O [C13SO3, tridecylsulfonate]			
0.028 (0.022–0.034) h^–1	0.40 mL h-1 mg protein-1		-0.0042 min-1	1.78 L kg-1 ww	3.31 L kg-1 ww				CCCCCCCCCCCCCOS(=O)(=O)O [C13SO4, tridecylsulfate]			
0.002 ^h h^–1	n.s.		-0.0010 min-1	1.58 L kg-1 ww	3.05 L kg-1 ww	11	0.05 h⁻¹	~ 3.5 mL h-1 g liver-1	CCCCCCCCCCCCCCS(=O)(=O)O [C14SO3, tetradecylsulfonate]			
0.002 ^h h^–1	n.s.		-0.0008 min-1	1.15 L kg-1 ww	4.29 L kg-1 ww		0.05 h⁻¹	~ 3.5 mL h-1 g liver-1	CCCCCCCCCCCCCCCCS(=O)(=O)O [C16SO3, hexadecylsulfonate]			

SMILES	kB-S9, biotransformation rate constant from in vitro RT-S9 assay [1]	CLint,S9 [1]	clearance rate lower in AnionMixture compared to single compound assay (factor) [2]	Slope of depletion curve (log concentration vs time) [2]	Log difference (baseline BCF vs BCF) [3]	Log baseline BCF [3]	factor by which kB-S9 was less than kB-BCF [1]	reaction rate set to LOD/3 for extrapolation [1]	CLint,in vivo set to LOD/3 for extrapolation [1]	factor by which kB-S9 was less than kB-BCF [1, 4]	kB-S9, biotransformation rate constant from in vitro RT-S9 assay [1, 4]	Slope of depletion curve (log concentration vs time) ([1]; tested individually, 2 mg/mL S9 protein, 11 °C)
CCCCC(CC)COC(=O)CC(C(=O)OCC(CC)CCCC)S(=O)(=O)O (stereo not shown) [DOSS, bis(2-ethylhexyl)sulfosuccinate]		0.14 mL h-1 mg protein-1		-0.0021 min-1	2.53 L kg-1 ww	2.68 L kg-1 ww				6	0.011 (0.009–0.013) h^–1	-0.0021 min-1
